Measurements taken from patent US8003327B2, “Methods of screening for risk of proliferative disease and methods for the treatment of proliferative disease” (Duke University, priority 1998, dated 2011).
Values after ≈ are worked out from the molar mass of the structure shown.

How the values were obtained:
NT2 cells [1] = experiment: DNA fragmentation (low molecular weight DNA ladder) in NT2 cells; assay type: cell-based
Method: FIG. 4. […] NT2 cells were transiently transfected with CLN3 (lanes 1, 3 and 5) or vector alone (lanes 2, 4 and 6) followed by treatment with either 10 μg/ml etoposide (lanes 1 and 2) or 500 nM staurosporine (lanes 3 and 4) or 1 μg/ml vincristine (lanes 5 and 6). Low molecular weight DNA was extracted and analyzed on a 2% agarose gel in Tris-Borate-EDTA buffer (Rosenbaum et al, Ann. Neurol. 36, 864-870 (1994)).
A hallmark of apoptosis is the fragmentation of nuclear DNA into nucleosome-sized fragments creating a DNA ladder of 180 bp and its concatamers (Arends M J, et al., Am. J. Pathol. 136: 593-608 (1990)). […] NT2 cells were transiently transfected with CLN3 or vector alone, then treated with the drugs prior to the extraction of low molecular weight DNA (Rosenbaum D M, et al., Ann. Neurol. 36: 864-870 (1994)).

NT2 cells [2] = experiment: Dose response of NT2 cell viability to drugs, trypan blue method; assay type: cell-based; details: for IC50: Homo sapiens, 18 hours, trypan blue, read-out: dose resulting in 50% killing at 18 hours
Method: Drug treatments: Dose response curves were established for etoposide, vincristine and staurosporine in NT2 cells (FIGS. 3Ai, 3Bi and 3Ci). […] Survival represents the number of drug treated viable cells divided by the number of untreated viable cells and expressed as a percentage. Protection is calculated as the difference in survival between CLN3-overexpressing cells and the vector-transfected control cells. The degree of protection is calculated as the difference in survival between treated CLN3-overexpressing and vector control cells divided by the survival of treated vector control cells. The values are from three separate experiments, each of which was carried out in triplicate (FIGS. 3Aii, 3Bii, and 3Cii).

Row | Structure (SMILES) | DNA fragmentation in NT2 cells caused by drug (NT2 cells [1]) | IC50 (NT2 cells [2]; NT2 cells) [µg/mL] | apoptosis induction in NT2 cells (NT2 cells [2]; increasing concentrations, counted at 6, 12, 18 and 24 hour) | optimal concentration for causing apoptosis in NT2 cells (NT2 cells [2]; NT2 cells, dose response curves) [nM]
1 | COc1cc([C@@H]2c3cc4c(cc3[C@@H](O[C@@H]3O[C@@H]5CO[C@@H](C)O[C@H]5[C@H](O)[C@H]3O)[C@H]3COC(=O)[C@H]23)OCO4)cc(OC)c1O [etoposide] | cause DNA fragmentation | 10 (≈ 17 µM) | – | –
2 | CCCCCCCCCCCCC/C=C/[C@@H](O)[C@H](CO)NC(C)=O [C2-ceramide] | – | – | effective apoptotic agent | –
3 | CN[C@@H]1C[C@H]2O[C@@](C)([C@@H]1OC)n1c3ccccc3c3c4c(c5c6ccccc6n2c5c31)C(=O)NC4 [staurosporine] | cause DNA fragmentation | – | – | 500
4 | CC[C@]1(O)C[C@H]2CN(CCc3c([nH]c4ccccc34)[C@@](C(=O)OC)(c3cc4c(cc3OC)N(C=O)[C@H]3[C@@](O)(C(=O)OC)[C@H](OC(C)=O)[C@]5(CC)C=CCN6CC[C@]43[C@@H]65)C2)C1 [vincristine] | cause DNA fragmentation | 1 (≈ 1.21 µM) | – | –
